Results: patent US20240008473A1, “DEVICE AND METHOD TO DISTRIBUTE AIR TREATMENT SUBSTANCE” (Discovery Purchaser Corporation, priority 2020, published 2024)

Experiments:
[1] = 25° C.; cited from earlier work
[2] = TGA (thermogravimetric analysis) measurements on TFL technical; type: physicochemical
Protocol: TGA (Thermogravimetric analysis) measurements were performed on TFL technical (release profile measurements done at isothermal (55° C.) and at constant temperature increase ratio (3K/mn)), and from that, it was discovered that release kinetic at “usual” candle melting temp (50-70° C.) would not allow enough TFL release to get expected efficacy, and that TFL release is not linear. It was determined as well that release onset for TFL is around 100° C. and far higher release ratio occurs at higher temperatures. The calculated estimated ideal temperature for TFL, for outdoor use, from the TGA measurement would be around 150° C.
TGA (Thermal Gravimetric Analysis) for TFL was run, which allows characterization of the release profile of an active ingredient as a function of the temperature. […] Thus, TFL release was pretty low in the range of the “usual candle wax melting temperature”, and it was not be possible to get the needed release rate. (which is the reason why TFL was mainly burnt before being released when incorporated directly into a candle). At such a temperature range, it would hardly possible (considering the potential TFL loading into the candle and candle size) to reach a release above 2-3 mg/h which is far below our 20-25 mg/h needed for outdoor use. • Based on the TGA measurement, it can be seen that to reach the desired 25 mg/h release rate for TFL, the pod temp should be >130-140° C.
(before a typical flame temperature). […] This amount is much lower than the desired 25 mg/h release rate.

[3] = 15 mg flakes, temperature ramp 3K/min, continuous N2-flow

| SMILES | Vapor pressure [1] | further results |
| --- | --- | --- |
| CC=CC1C(C(=O)OCc2c(F)c(F)c(C)c(F)c2F)C1(C)C (centres unmarked) [Profluthrin] | 10.3 mPa @25 °C | – |
| C/C=C/C1C(C(=O)OCc2c(F)c(F)c(COC)c(F)c2F)C1(C)C (centres unmarked) [Metofluthrin] | 1.96 mPa @25 °C | – |
| C#CCN1CC(=O)N(COC(=O)[C@@H]2C(C=C(C)C)C2(C)C)C1=O (mixture of isomers) [Imiprothrin] | 1.85 mPa @25 °C | – |
| CC(C)=CC1C(C(=O)OCN2C(=O)C3=C(CCCC3)C2=O)C1(C)C (centres unmarked) [Tetramethrin] | 2.11 mPa @25 °C | – |
| CC1(C)[C@H](C=C(Cl)Cl)[C@H]1C(=O)OCc1c(F)c(F)cc(F)c1F [TFL, Transfluthrin] | 2 mPa @25 °C | complete evaporation [2, 3]: 255 °C; onset of evaporation [2, 3]: around 100 °C; reachable release at usual candle wax melting temperature ([2]; 50-80° C., TFL loaded into candle): 2 to 3 mg/h; release onset for TFL ([2]; TGA on TFL technical, isothermal (55° C.) and 3K/mn ramp): around 100 °C; active ingredient release below 100-110° C. ([2]; TGA, FIG. 9A): very little release; TFL evaporation rate ([2]; at 55° C. candle melting temperature, TGA conditions): < 0.03 mg/h; pod temp to reach the desired 25 mg/h release rate ([2]; based on the TGA measurement): 130-140 °C |
| C#CC(OC(=O)C1C(C=C(C)C)C1(C)C)/C(C)=C/CC (centres unmarked) [Empenthrin] | 15.4 mPa @25 °C | – |
| C#CCC1=C(C)C(OC(=O)C2C(C=C(C)C)C2(C)C)CC1=O (centres unmarked) [Prallethrin] | 0.6 mPa @25 °C | – |
